# Numbers after ± are expanded uncertainties.
# Tests used:
# [1] = for mass density: 101 kPa, Liquid, Vibrating tube method; for Normal melting temperature: Crystal, visual observation
# [2] = refractive index (Na D-line) (dimensionless); conditions: 323.15 K; 101 kPa; Liquid; Standard Abbe refractometry
# [3] = xn = mol fraction of the nth substance listed; conditions: 323.15 K, 101 kPa, Liquid, Vibrating tube method
# [4] = refractive index (Na D-line) (dimensionless); xn = mol fraction of the nth substance listed; conditions: 323.15 K, 101 kPa, Liquid, Standard Abbe refractometry
smiles,measurement,setting,value
COc1ccccc1 [anisole],mass density,[1]; 298.15 K,989.42 ± 0.11 kg/m3
same,mass density,[1]; 323.15 K,965.35 ± 0.11 kg/m3
same,Normal melting temperature,[1],-37.9 ± 0.4 °C
same,refractive index,[2],1.5012 ± 0.0007
COC(=O)OC [dimethyl carbonate] + COc1ccccc1,mass density,[3]; x1 = 1,1029.81 ± 0.11 kg/m3
same,refractive index,[4]; x1 = 1,1.3546 ± 0.0007
Oc1ccccc1 [phenol],mass density,[1]; 313.15 K,1058.51 ± 0.28 kg/m3
same,mass density,[1]; 323.15 K,1049.8 ± 0.27 kg/m3
same,Normal melting temperature,[1],41.0 ± 0.4 °C
same,refractive index,[2],1.5375 ± 0.0007
Oc1ccccc1 [phenol] + COC(=O)OC,mass density,[3]; x2 = 0,1049.79 ± 0.27 kg/m3
same,mass density,[3]; x2 = 0.0469,1049.78 ± 0.25 kg/m3
same,mass density,[3]; x2 = 0.1001,1049.78 ± 0.23 kg/m3
same,mass density,[3]; x2 = 0.2001,1049.38 ± 0.21 kg/m3
same,mass density,[3]; x2 = 0.3,1048.47 ± 0.18 kg/m3
same,mass density,[3]; x2 = 0.3999,1047.12 ± 0.16 kg/m3
same,mass density,[3]; x2 = 0.5,1045.31 ± 0.15 kg/m3
same,mass density,[3]; x2 = 0.6,1043 ± 0.13 kg/m3
same,mass density,[3]; x2 = 0.7001,1040.26 ± 0.12 kg/m3
same,mass density,[3]; x2 = 0.8,1037.11 ± 0.12 kg/m3
same,mass density,[3]; x2 = 0.9,1033.66 ± 0.11 kg/m3
same,mass density,[3]; x2 = 0.9499,1031.81 ± 0.11 kg/m3
same,refractive index,[4]; x2 = 0,1.5375 ± 0.0007
same,refractive index,[4]; x2 = 0.0469,1.53 ± 0.0007
same,refractive index,[4]; x2 = 0.1001,1.5222 ± 0.0007
same,refractive index,[4]; x2 = 0.2001,1.5068 ± 0.0007
same,refractive index,[4]; x2 = 0.3,1.4912 ± 0.0007
same,refractive index,[4]; x2 = 0.3999,1.479 ± 0.0007
same,refractive index,[4]; x2 = 0.5,1.4698 ± 0.0007
same,refractive index,[4]; x2 = 0.6,1.4592 ± 0.0007
same,refractive index,[4]; x2 = 0.7001,1.4428 ± 0.0007
same,refractive index,[4]; x2 = 0.8,1.4169 ± 0.0007
same,refractive index,[4]; x2 = 0.9,1.384 ± 0.0007
same,refractive index,[4]; x2 = 0.9499,1.3675 ± 0.0007
COc1ccccc1 [anisole] + Oc1ccccc1,mass density,[3]; x1 = 0.05,1044.95 ± 0.25 kg/m3
same,mass density,[3]; x1 = 0.1001,1040.35 ± 0.23 kg/m3
same,mass density,[3]; x1 = 0.2,1031.27 ± 0.2 kg/m3
same,mass density,[3]; x1 = 0.3,1022.44 ± 0.17 kg/m3
same,mass density,[3]; x1 = 0.4,1013.68 ± 0.15 kg/m3
same,mass density,[3]; x1 = 0.5,1005.11 ± 0.14 kg/m3
same,mass density,[3]; x1 = 0.6103,995.89 ± 0.13 kg/m3
same,mass density,[3]; x1 = 0.7,988.65 ± 0.12 kg/m3
same,mass density,[3]; x1 = 0.8,980.8 ± 0.11 kg/m3
same,mass density,[3]; x1 = 0.9001,973.1 ± 0.11 kg/m3
same,mass density,[3]; x1 = 0.9498,969.31 ± 0.11 kg/m3
same,mass density,[3]; x1 = 1,965.35 ± 0.11 kg/m3
same,refractive index,[4]; x1 = 0.05,1.535 ± 0.0007
same,refractive index,[4]; x1 = 0.1001,1.5333 ± 0.0007
same,refractive index,[4]; x1 = 0.2,1.5296 ± 0.0007
same,refractive index,[4]; x1 = 0.3,1.5259 ± 0.0007
same,refractive index,[4]; x1 = 0.4,1.522 ± 0.0007
same,refractive index,[4]; x1 = 0.5,1.5183 ± 0.0007
same,refractive index,[4]; x1 = 0.6103,1.5144 ± 0.0007
same,refractive index,[4]; x1 = 0.7,1.5114 ± 0.0007
same,refractive index,[4]; x1 = 0.8,1.508 ± 0.0007
same,refractive index,[4]; x1 = 0.9001,1.5047 ± 0.0007
same,refractive index,[4]; x1 = 0.9498,1.503 ± 0.0007
same,refractive index,[4]; x1 = 1,1.5012 ± 0.0007
COC(=O)OC [dimethyl carbonate],mass density,[1]; 298.15 K,1063.26 ± 0.12 kg/m3
same,mass density,[1]; 323.15 K,1029.81 ± 0.11 kg/m3
same,Normal melting temperature,[1],5.1 ± 0.4 °C
same,refractive index,[2],1.3546 ± 0.0007
COC(=O)OC [dimethyl carbonate] + Oc1ccccc1,mass density,[3]; x1 = 1,1029.81 ± 0.11 kg/m3
same,refractive index,[4]; x1 = 1,1.3546 ± 0.0007
Oc1ccccc1 [phenol] + COc1ccccc1,mass density,[3]; x2 = 0,1049.8 ± 0.27 kg/m3
same,refractive index,[4]; x2 = 0,1.5375 ± 0.0007
COc1ccccc1 [anisole] + COC(=O)OC,mass density,[3]; x2 = 0,965.35 ± 0.11 kg/m3
same,mass density,[3]; x2 = 0.05,967.83 ± 0.11 kg/m3
same,mass density,[3]; x2 = 0.1001,970.34 ± 0.11 kg/m3
same,mass density,[3]; x2 = 0.2001,975.5 ± 0.11 kg/m3
same,mass density,[3]; x2 = 0.3,980.89 ± 0.11 kg/m3
same,mass density,[3]; x2 = 0.4,986.63 ± 0.11 kg/m3
same,mass density,[3]; x2 = 0.5,992.69 ± 0.11 kg/m3
same,mass density,[3]; x2 = 0.5999,999.08 ± 0.11 kg/m3
same,mass density,[3]; x2 = 0.7,1005.87 ± 0.11 kg/m3
same,mass density,[3]; x2 = 0.8,1013.1 ± 0.11 kg/m3
same,mass density,[3]; x2 = 0.9,1020.95 ± 0.11 kg/m3
same,mass density,[3]; x2 = 0.95,1025.2 ± 0.11 kg/m3
same,refractive index,[4]; x2 = 0,1.5012 ± 0.0007
same,refractive index,[4]; x2 = 0.05,1.4963 ± 0.0007
same,refractive index,[4]; x2 = 0.1001,1.4908 ± 0.0007
same,refractive index,[4]; x2 = 0.2001,1.4795 ± 0.0007
same,refractive index,[4]; x2 = 0.3,1.4659 ± 0.0007
same,refractive index,[4]; x2 = 0.4,1.4516 ± 0.0007
same,refractive index,[4]; x2 = 0.5,1.437 ± 0.0007
same,refractive index,[4]; x2 = 0.5999,1.4226 ± 0.0007
same,refractive index,[4]; x2 = 0.7,1.4087 ± 0.0007
same,refractive index,[4]; x2 = 0.8,1.393 ± 0.0007
same,refractive index,[4]; x2 = 0.9,1.3754 ± 0.0007
same,refractive index,[4]; x2 = 0.95,1.3655 ± 0.0007
